Measurements published in article PMC4051630, “A Comparison of Protein Kinases Inhibitor Screening Methods Using Both Enzymatic Activity and Binding Affinity Determination” (PLoS ONE, 2014).

Columns and labels:
Assay in all cases: Differential Scanning Fluorimetry (DSF) Tm shift
Type in all cases: binding
PAK4 Catalytic Domain = molecular target: T1, PAK4 Catalytic Domain (Homo sapiens, UniProt O96013); conditions: 2 µM protein, 10 µM inhibitor, average of 3 experiments, each in duplicate
T1 construct: For all of them, we expressed and purified the catalytic domain separately; His-tag; made in house; host or cells: Escherichia coli

FES Catalytic Domain = molecular target: T2, FES Catalytic Domain (Homo sapiens, UniProt P07332); conditions: 2 µM protein, 10 µM inhibitor, average of 3 experiments, each in duplicate
T2 construct: For all of them, we expressed and purified the catalytic domain separately; His-tag; made in house; host or cells: Escherichia coli

PAK7 Catalytic Domain = molecular target: T3, PAK7 Catalytic Domain (Homo sapiens, UniProt Q9P286); conditions: 2 µM protein, 10 µM inhibitor, average of 3 experiments, each in duplicate
T3 construct: For all of them, we expressed and purified the catalytic domain separately; His-tag; made in house; host or cells: Escherichia coli

AKT3 Catalytic Domain = molecular target: T4, AKT3 Catalytic Domain (Homo sapiens, UniProt Q9Y243); conditions: 2 µM protein, 10 µM inhibitor, average of 3 experiments, each in duplicate
T4 construct: AKT3 (Q9Y243); CD; His-tag; made in house; host or cells: Escherichia coli

DMPK Catalytic Domain = molecular target: T5, DMPK Catalytic Domain (Homo sapiens, UniProt Q09013); conditions: 2 µM protein, 10 µM inhibitor, average of 3 experiments, each in duplicate
T5 construct: For all of them, we expressed and purified the catalytic domain separately; His-tag; made in house; host or cells: Escherichia coli
T5 sequence (Q09013 71-339 limits assumed): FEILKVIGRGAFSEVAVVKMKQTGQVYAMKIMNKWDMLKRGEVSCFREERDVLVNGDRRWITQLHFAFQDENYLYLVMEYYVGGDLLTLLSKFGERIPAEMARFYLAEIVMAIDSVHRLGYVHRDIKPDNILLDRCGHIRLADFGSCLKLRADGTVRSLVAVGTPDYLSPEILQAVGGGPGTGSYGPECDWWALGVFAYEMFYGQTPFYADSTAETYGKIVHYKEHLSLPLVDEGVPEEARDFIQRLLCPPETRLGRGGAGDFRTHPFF

CDK2 + Cyclin E = molecular target: T6, CDK2 + Cyclin E (Homo sapiens, UniProt P24941); conditions: CDK2 + Cyclin E; 2 µM protein, 10 µM inhibitor; average of 3 experiments, each in duplicate
T6 construct: CDK2 (P24941); 1–299; His-tag; made in house; host or cells: Escherichia coli

CDK2 + Cyclin A = molecular target: T7, CDK2 + Cyclin A (Homo sapiens, UniProt P24941); conditions: CDK2 + Cyclin A; 2 µM protein, 10 µM inhibitor; average of 3 experiments, each in duplicate
T7 construct: CDK2 (P24941); 1–299; His-tag; made in house; host or cells: Escherichia coli

SRC Catalytic Domain = SRC Catalytic Domain (Homo sapiens, UniProt P12931); design: For all of them, we expressed and purified the catalytic domain separately; His-tag; made in house; host or cells: Escherichia coli; conditions: 2 µM protein, 10 µM inhibitor, average of 3 experiments, each in duplicate
STK3 Catalytic Domain = molecular target: T8, STK3 Catalytic Domain (Homo sapiens, UniProt Q13188); conditions: 2 µM protein, 10 µM inhibitor, average of 3 experiments, each in duplicate
T8 construct: For all of them, we expressed and purified the catalytic domain separately; His-tag; made in house; host or cells: Escherichia coli
T8 sequence (Q13188 27-278 limits assumed): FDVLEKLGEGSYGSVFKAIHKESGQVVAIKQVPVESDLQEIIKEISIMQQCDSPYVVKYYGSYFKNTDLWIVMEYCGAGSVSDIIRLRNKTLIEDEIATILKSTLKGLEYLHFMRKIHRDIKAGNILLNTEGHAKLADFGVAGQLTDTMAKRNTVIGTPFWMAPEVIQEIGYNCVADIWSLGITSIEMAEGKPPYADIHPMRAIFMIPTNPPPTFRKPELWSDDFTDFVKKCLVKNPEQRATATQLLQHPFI

[1] = molecular target: T9, STK3 Catalytic domain+SARAH (Homo sapiens, UniProt Q13188); conditions: 2 µM protein, 10 µM inhibitor, average of 3 experiments, each in duplicate
T9 construct: for 8, we also made a longer version containing one or more additional domains; His-tag; made in house; host or cells: Escherichia coli
T9 sequence (Q13188 1-491): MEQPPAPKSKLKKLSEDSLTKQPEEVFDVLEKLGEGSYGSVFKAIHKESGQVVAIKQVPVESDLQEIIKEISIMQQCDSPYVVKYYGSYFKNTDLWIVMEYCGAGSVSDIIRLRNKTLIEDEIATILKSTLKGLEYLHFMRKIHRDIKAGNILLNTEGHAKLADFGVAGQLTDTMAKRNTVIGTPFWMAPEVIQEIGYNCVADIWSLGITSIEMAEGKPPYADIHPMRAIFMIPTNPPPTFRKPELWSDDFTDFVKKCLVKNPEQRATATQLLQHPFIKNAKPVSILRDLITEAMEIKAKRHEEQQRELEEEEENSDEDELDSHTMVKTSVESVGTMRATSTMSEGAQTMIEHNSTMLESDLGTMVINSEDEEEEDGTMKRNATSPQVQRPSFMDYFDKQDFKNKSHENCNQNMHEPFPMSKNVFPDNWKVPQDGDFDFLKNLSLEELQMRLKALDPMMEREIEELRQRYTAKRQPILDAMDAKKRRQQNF

CHK2 Catalytic Domain = molecular target: T10, CHK2 Catalytic Domain (Homo sapiens, UniProt O96017); conditions: 2 µM protein, 10 µM inhibitor, average of 3 experiments, each in duplicate
T10 construct: For all of them, we expressed and purified the catalytic domain separately; His-tag; made in house; host or cells: Escherichia coli

[2] = molecular target: SRC Catalytic Domain+SH2+SH3 (Homo sapiens, UniProt P12931); conditions: 2 µM protein, 10 µM inhibitor, average of 3 experiments, each in duplicate
[3] = molecular target: T11, PAK4 Catalytic Domain+PBD (Homo sapiens, UniProt O96013); conditions: 2 µM protein, 10 µM inhibitor, average of 3 experiments, each in duplicate
T11 construct: for 8, we also made a longer version containing one or more additional domains; His-tag; made in house; host or cells: Escherichia coli

FES Catalytic Domain+SH2 = molecular target: T12, FES Catalytic Domain+SH2 (Homo sapiens, UniProt P07332); conditions: 2 µM protein, 10 µM inhibitor, average of 3 experiments, each in duplicate
T12 construct: for 8, we also made a longer version containing one or more additional domains; His-tag; made in house; host or cells: Escherichia coli

FAK2 Catalytic Domain = molecular target: T13, FAK2 Catalytic Domain (Homo sapiens, UniProt Q14289); conditions: 2 µM protein, 10 µM inhibitor, average of 3 experiments, each in duplicate
T13 construct: For all of them, we expressed and purified the catalytic domain separately; His-tag; made in house; host or cells: Escherichia coli
T13 sequence (Q14289 425-683 limits assumed): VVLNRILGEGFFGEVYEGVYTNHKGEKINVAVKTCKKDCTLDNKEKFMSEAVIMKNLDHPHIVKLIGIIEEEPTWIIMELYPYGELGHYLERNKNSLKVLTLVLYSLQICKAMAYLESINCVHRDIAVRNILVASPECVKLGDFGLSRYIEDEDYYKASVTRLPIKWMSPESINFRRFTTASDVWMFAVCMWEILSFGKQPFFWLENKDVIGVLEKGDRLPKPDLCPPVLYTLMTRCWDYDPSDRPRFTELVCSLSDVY

T12 sequence (P07332 448-822 limits assumed): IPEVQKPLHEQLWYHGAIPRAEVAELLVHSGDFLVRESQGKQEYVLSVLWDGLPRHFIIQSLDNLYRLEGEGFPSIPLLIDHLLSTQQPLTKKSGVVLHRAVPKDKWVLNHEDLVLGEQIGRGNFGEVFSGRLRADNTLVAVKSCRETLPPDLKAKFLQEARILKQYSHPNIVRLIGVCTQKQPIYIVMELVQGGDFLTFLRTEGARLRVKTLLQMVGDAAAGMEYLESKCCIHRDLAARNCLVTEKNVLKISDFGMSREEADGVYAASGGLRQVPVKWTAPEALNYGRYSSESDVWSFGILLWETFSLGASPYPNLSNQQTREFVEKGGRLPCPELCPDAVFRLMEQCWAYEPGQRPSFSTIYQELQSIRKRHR
T2 sequence (P07332 561-822 limits assumed): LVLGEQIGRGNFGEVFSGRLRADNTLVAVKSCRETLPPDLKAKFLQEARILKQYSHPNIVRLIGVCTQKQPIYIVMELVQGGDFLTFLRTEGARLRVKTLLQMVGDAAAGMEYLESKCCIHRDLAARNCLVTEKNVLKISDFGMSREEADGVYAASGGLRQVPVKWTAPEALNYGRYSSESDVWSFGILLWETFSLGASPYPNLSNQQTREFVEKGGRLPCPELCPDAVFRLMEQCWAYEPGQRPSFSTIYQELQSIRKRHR
T4 sequence (Q9Y243 122-479): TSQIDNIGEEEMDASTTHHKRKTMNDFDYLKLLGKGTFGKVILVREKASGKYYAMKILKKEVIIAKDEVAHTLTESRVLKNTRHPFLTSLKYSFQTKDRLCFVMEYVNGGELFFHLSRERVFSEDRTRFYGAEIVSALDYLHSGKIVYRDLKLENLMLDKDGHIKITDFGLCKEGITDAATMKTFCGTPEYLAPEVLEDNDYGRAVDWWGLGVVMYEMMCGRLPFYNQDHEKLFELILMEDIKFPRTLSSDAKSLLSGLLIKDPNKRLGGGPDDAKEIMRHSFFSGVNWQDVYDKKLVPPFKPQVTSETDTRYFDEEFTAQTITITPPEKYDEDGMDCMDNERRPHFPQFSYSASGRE
T3 sequence (Q9P286 449-700 limits assumed): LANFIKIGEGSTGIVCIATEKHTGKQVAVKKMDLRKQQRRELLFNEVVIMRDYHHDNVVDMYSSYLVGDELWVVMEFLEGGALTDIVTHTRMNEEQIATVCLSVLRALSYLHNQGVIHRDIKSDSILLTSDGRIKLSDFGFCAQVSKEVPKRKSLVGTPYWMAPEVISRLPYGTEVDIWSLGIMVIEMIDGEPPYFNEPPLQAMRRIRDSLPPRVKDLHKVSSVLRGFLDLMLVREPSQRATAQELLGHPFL
T11 sequence (O96013 whole entry, the tested form may be a part): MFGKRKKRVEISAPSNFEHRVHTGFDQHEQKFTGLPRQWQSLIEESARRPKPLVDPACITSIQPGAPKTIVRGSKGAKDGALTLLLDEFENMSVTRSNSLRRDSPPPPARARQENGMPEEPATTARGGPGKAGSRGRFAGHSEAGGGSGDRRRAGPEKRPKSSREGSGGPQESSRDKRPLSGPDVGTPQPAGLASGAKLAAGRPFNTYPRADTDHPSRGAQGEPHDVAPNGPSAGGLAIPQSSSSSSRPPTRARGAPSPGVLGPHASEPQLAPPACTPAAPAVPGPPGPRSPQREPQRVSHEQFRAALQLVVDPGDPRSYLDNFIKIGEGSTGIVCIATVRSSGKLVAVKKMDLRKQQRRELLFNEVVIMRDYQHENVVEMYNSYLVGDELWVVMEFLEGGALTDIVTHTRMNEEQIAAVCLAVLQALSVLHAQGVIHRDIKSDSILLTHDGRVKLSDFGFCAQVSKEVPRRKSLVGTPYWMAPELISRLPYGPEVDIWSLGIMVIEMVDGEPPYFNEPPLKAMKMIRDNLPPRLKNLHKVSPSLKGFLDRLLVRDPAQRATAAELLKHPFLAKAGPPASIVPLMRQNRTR
T10 sequence (O96017 220-486 limits assumed): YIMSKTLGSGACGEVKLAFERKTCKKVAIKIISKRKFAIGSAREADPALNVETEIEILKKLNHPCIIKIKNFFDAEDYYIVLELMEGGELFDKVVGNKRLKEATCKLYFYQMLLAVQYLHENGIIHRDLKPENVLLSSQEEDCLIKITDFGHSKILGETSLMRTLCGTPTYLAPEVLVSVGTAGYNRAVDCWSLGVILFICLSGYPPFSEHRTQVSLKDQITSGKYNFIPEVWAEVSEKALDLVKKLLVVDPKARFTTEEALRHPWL
T1 sequence (O96013 321-572 limits assumed): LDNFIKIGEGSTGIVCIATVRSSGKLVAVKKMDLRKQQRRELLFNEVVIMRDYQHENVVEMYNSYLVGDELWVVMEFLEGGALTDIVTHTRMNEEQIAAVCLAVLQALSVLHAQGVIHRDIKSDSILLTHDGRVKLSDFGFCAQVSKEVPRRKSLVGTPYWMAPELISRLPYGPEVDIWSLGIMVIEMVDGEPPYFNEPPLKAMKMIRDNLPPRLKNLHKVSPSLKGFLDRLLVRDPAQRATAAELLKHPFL

| Molecule | Melting temperature (Tm) shift (PAK4 Catalytic Domain) [degrees Celcius] | Melting temperature (Tm) shift (FES Catalytic Domain) [degrees Celcius] | Melting temperature (Tm) shift (PAK7 Catalytic Domain) [degrees Celcius] | Melting temperature (Tm) shift (AKT3 Catalytic Domain) [degrees Celcius] | Melting temperature (Tm) shift (DMPK Catalytic Domain) [degrees Celcius] | Melting temperature (Tm) shift (CDK2 + Cyclin E) [degrees Celcius] | Melting temperature (Tm) shift (CDK2 + Cyclin A) [degrees Celcius] | Melting temperature (Tm) shift (SRC Catalytic Domain) [degrees Celcius] | Melting temperature (Tm) shift (STK3 Catalytic Domain) [degrees Celcius] | Melting temperature (Tm) shift [1] [degrees Celcius] | Melting temperature (Tm) shift (CHK2 Catalytic Domain) [degrees Celcius] | Melting temperature (Tm) shift [2] [degrees Celcius] | Melting temperature (Tm) shift [3] [degrees Celcius] | Melting temperature (Tm) shift (FES Catalytic Domain+SH2) [degrees Celcius] | Melting temperature (Tm) shift (FAK2 Catalytic Domain) [degrees Celcius] |
| --- | --- | --- | --- | --- | --- | --- | --- | --- | --- | --- | --- | --- | --- | --- | --- |
| COc1cc2ncnc(Nc3ccc(OCc4ccccc4)cc3)c2cc1OC [EGFR/ErbB-2 Inhibitor] | 0.3 | 0.0 | 0.0 | 0.1 | 0.3 | 0.1 | 0.0 | 1.4 | 0.2 | 0.2 | 11.2 | 0.8 | 0.0 | 0.1 |  |
| O=C(c1cc2cc(O)ccc2[nH]1)c1cc2cc(O)ccc2[nH]1 [Flt-3 Inhibitor II] | 0.9 | 1.0 | 0.6 | 0.1 |  | 0.2 | 0.9 | 1.3 | 2.3 | 2.3 | 2.2 | 1.3 | 0.9 | 0.0 | 0.4 |
| COc1ccc2c(c1)c(C1=C(c3c[nH]c4ccccc34)C(=O)NC1=O)cn2CCCN(C)C [Gö 6983] | 0.0 | 0.9 | 0.1 | 0.0 | 1.9 | 0.1 | 0.4 | 0.2 | 0.2 | 0.7 | 5.6 |  |  | 0.7 |  |
| O=C1Nc2ccccc2C1=C1Nc2ccccc2C1=NOCCC(O)CO (centres unmarked) [Indirubin Derivative E804] | 1.9 | 1.1 | 1.7 | 0.7 | 0.6 | 1.1 |  | 3.1 | 5.2 | 3.5 | 2.2 | 2.8 | 2.1 | 1.0 | 2.8 |
| O=C1NC(=O)c2c1c1c3ccccc3n3c1c1c2c2ccccc2n1C1CCC3O1 [SB 218078] | 2.5 | 16.0 | 0.5 | 16.8 | 15.4 | 0.0 |  | 1.9 | 14.2 | 0.6 | 24.9 | 10.3 |  |  | 19.6 |

More lines, now with the values ahead:

| Melting temperature (Tm) shift (PAK4 Catalytic Domain) [degrees Celcius] | Melting temperature (Tm) shift (FES Catalytic Domain) [degrees Celcius] | Melting temperature (Tm) shift (PAK7 Catalytic Domain) [degrees Celcius] | Melting temperature (Tm) shift (AKT3 Catalytic Domain) [degrees Celcius] | Melting temperature (Tm) shift (DMPK Catalytic Domain) [degrees Celcius] | Melting temperature (Tm) shift (CDK2 + Cyclin E) [degrees Celcius] | Melting temperature (Tm) shift (CDK2 + Cyclin A) [degrees Celcius] | Melting temperature (Tm) shift (SRC Catalytic Domain) [degrees Celcius] | Melting temperature (Tm) shift (STK3 Catalytic Domain) [degrees Celcius] | Melting temperature (Tm) shift [1] [degrees Celcius] | Melting temperature (Tm) shift (CHK2 Catalytic Domain) [degrees Celcius] | Melting temperature (Tm) shift [2] [degrees Celcius] | Melting temperature (Tm) shift [3] [degrees Celcius] | Melting temperature (Tm) shift (FES Catalytic Domain+SH2) [degrees Celcius] | Melting temperature (Tm) shift (FAK2 Catalytic Domain) [degrees Celcius] | Molecule |
| --- | --- | --- | --- | --- | --- | --- | --- | --- | --- | --- | --- | --- | --- | --- | --- |
| 0.6 | 0.3 |  | 0.3 | 0.7 | 0.2 |  | 0.0 |  | 0.9 | 1.1 | 0.0 | 0.4 | 0.1 | 0.5 | VEGF Receptor 2 Kinase Inhibitor I |
|  |  |  | 4.5 |  | 0.4 | 0.4 | 0.0 | 0.1 |  | 2.6 |  | 1.1 |  | 0.5 | Cc1cc(C=C2C(=O)C=CC2=O)cc(C)c1O [TX-1918] |
| 0.8 | 0.2 | 0.2 | 0.2 | 0.6 | 0.1 |  | 0.2 | 2.4 | 1.0 | 1.1 | 0.4 | 1.2 | 0.1 |  | Indirubin-3′ -monoxime [Indirubin-3ʹ′-monoxime] |
| 5.5 | 5.5 | 0.0 | 0.0 | 3.2 | 2.3 | 4.3 | 3.0 | 3.6 | 4.3 | 8.3 | 1.8 | 7.3 | 3.4 |  | COc1cc(Nc2ncc3ccn(-c4cccc(CCC#N)c4)c3n2)cc(OC)c1OC [Keratinocyte Differentiation Inducer] |
